These results are taken from PMC6078987, “Molecular insights into antibiotic resistance - how a binding protein traps albicidin” (Nature Communications, 2018).

≈ marks a conversion by molar mass, not a printed value. Entries after “also recorded” stand apart in the source; their conditions may differ.

In test [1] the test system is E. coli DH5α. In words: Agar diffusion assay. Format: cell-based. As to the method:
To verify the neutralizing ability of AlbAS, AlbAL, AlbASM, AlbASCTD, or AlbASNTD against different compounds, agar diffusion assays with the respective compounds were performed. An overnight culture of E. coli DH5α was diluted to an OD600 of 0.05 with 0.75% LB-agar. The protein-albicidin reaction mixture consisted of a 1:1 mixture of 40 μM albicidin (or derivatives) with 40 μM protein (either AlbAS or its variants AlbAL, AlbASM, AlbASNTD, and AlbASCTD). The mixture was incubated for 20 min at room temperature in the dark. Reaction mixtures of 30 μL were transferred in triplicates of 2 mm holes on the inoculated agar plate. The plates were evaluated concerning growth-inhibition zone after incubation for 18 h at 37 °C.

The target in test [2] is T1, AlbAS (Klebsiella oxytoca, UniProt Q8KRS7).
T1 sequence (Q8KRS7 1-221): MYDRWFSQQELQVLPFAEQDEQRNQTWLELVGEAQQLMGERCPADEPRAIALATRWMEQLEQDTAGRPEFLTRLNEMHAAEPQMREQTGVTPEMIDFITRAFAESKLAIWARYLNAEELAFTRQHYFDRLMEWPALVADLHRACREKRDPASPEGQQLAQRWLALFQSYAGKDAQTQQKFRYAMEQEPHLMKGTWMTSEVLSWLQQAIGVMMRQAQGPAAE
In words: 1H-15N HSQC NMR binding assay. The following applies: 15N-labeled AlbAS, 1.5-fold excess of ligand. How it is done: For binding studies with albicidin and its derivatives, each ligand was dissolved in 100% d6-DMSO and added to ^15N-labeled AlbAS or ^2H, ^15N-labeled AlbAL in 50 mM sodium hydrogen phosphate (pH 6.8), 150 mM NaCl buffer (usually 0.24 mM AlbAS or AlbAL in 85% buffer, 5% d6-DMSO, and 10% D2O) yielding a 1.5-fold excess of the ligand. After incubation for 20 min at room temperature in the dark, the sample was centrifuged at 20 000 × g for 3 min and the supernatant was transferred to a 5 mm NMR tube. The AlbAS blank sample (Supplementary Figure 14) was measured in 100% buffer without addition of ligands and DMSO. Spectra were recorded on a Bruker Avance III 700 MHz NMR spectrometer (Bruker BioSpin, Rheinstetten, Germany) with a TXI probe head. Standard Bruker pulse sequences were used. 2D ^1H-^15N HSQC spectra were recorded at 298 K with acquisition times of 90 and 22 ms for the ^1H and ^15N dimension, respectively. The experiments were accumulated with ≥16 scans depending on protein sample concentration. 2D ^1H-^15N TROSY spectra were accumulated with 256 scans and acquisition times of 90 and 22 ms for the ^1H and ^15N dimension, respectively. Several AlbAS–albicidin samples were measured with the same result and a representative spectrum is given for the figures in the main manuscript and the SI. NMR experiments with AlbAS and albicidin analogs were conducted once with accumulation of ≥16 scans depending on protein concentration. For alignment of HSQC and TROSY spectra, the TROSY spectrum was corrected by 1/2 ^1JNH in both dimensions. […]

Test [3] deals with Acinetobacter baumanii. In words: MIC assay, clinical isolates. The format is cell-based. The note with it: Acinetobacter baumannii. As to the method: (§1) The MIC assay was performed by Antiinfectives Intelligence GmbH (Rheinbach, Germany) using internationally standardized protocols and employing clinical isolates of K. oxytoca, K. pneumoniae, R. ornithologica, P. aeruginosa, A. baumannii and E. cloacae.

The subject of test [4] is Enterobacter cloacae. The test can be described thus: MIC assay, clinical isolates. Format: cell-based. As to the method:
as §1

Test [5] concerns K. oxytoca. The test can be described thus: MIC assay, clinical isolates. The format is cell-based. The note with it: Klebsiella oxytoca; four K. oxytoca strains. How it is done: as §1
Test [6] concerns Klebsiella pneumoniae. In words: MIC assay, clinical isolates. Format: cell-based. The following applies: seven Klebsiella pneumoniae strains. How it is done: as §1
Test [7] concerns P. aeruginosa. In words: MIC assay, clinical isolates. The format is cell-based. The note with it: Pseudomonas aeruginosa. How it is done:
as §1

Test [8] relates to R. ornithinolytica. The test can be described thus: MIC assay, clinical isolates. The format is cell-based. How it is done:
as §1

Test [9] has as its target T2, GyrBA59 (Escherichia coli, UniProt P0AES4+P0AES6).
T2 construct: combining the full-length GyrB and a C-terminally truncated GyrA segment (59 kDa); a C-terminally truncated GyrA segment (59 kDa); 6x His (TEV-cleavable) (N, cleaved yes); made in house; host or cells: E. coli BL21 DE3, pET-28a(+)
The test can be described thus: DNA cleavage assay. The format is biochemical, E. coli. The following applies: 5 nM – 5120 nM albicidin, pBR322, 1.4 mM ATP. As to the method: E. coli DNA gyrase cleavage assays were performed by incubating 250 ng of supercoiled pBR322 plasmid DNA (Inspiralis, Norwich, UK) with 25 nM of GyrBA59 protein in 20 µL reactions containing 35 mM Tris-HCl (pH 8.0), 24 mM KCl, 4 mM MgCl2, 2 mM DTT, 1.8 mM spermidine, 1.4 mM ATP, 6.5% (w/v) glycerol, and 0.1 mg mL^−1 bovine serum albumin in the presence or absence of various concentrations of albicidin (final concentration of 5% dimethyl sulfoxide (DMSO), incubation at 37 °C for 30 min). Linearized DNA was released by further incubation with 0.2% (w/v) SDS and 0.1 mg mL^−1 proteinase K (Promega, Madison, USA) at 37 °C for 30 min. The reaction was stopped by addition of 20 µL of reaction stop buffer (STEB buffer) (40% (w/v) sucrose, 100 mM Tris-HCl (pH 8.0), 10 mM EDTA, and 0.5 mg mL^−1 Bromophenol Blue) and precipitation using 30 µL of chloroform/isoamyl alcohol 24:1 (v:v). Samples were analyzed by electrophoresis in 1% w/v agarose gel containing 0.5 […] followed by photography under ultraviolet illumination.

Test [10] has as its system Salmonella enteritidis. Also noted: method as in PMID 17074789, PMID 25504839. The following applies: cited from earlier work.

T2 sequence (P0AES4 whole entry, looked up, other chains not shown, the tested form may be a part): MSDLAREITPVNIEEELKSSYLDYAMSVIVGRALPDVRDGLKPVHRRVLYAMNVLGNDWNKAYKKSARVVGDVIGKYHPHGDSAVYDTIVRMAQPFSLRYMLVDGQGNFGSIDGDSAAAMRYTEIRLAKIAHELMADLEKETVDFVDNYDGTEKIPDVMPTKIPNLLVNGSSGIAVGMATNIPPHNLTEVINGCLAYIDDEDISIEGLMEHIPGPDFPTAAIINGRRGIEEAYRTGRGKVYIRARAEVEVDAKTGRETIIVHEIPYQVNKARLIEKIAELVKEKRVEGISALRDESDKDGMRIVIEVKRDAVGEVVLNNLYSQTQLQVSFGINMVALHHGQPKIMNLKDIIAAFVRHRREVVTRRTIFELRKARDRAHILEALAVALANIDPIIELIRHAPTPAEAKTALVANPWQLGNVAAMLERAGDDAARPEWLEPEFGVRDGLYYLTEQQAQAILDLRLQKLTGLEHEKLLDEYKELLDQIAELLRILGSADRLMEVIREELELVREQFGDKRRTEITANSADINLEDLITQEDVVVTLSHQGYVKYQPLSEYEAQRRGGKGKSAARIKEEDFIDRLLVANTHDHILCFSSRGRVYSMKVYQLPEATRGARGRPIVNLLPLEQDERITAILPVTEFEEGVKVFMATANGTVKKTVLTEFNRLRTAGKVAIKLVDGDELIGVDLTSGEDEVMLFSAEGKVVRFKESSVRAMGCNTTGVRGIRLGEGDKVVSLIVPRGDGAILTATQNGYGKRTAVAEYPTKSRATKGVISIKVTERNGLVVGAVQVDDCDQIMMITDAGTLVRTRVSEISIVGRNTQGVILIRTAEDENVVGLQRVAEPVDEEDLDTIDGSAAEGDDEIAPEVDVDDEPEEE

Take `COc1c(NC(=O)c2ccc(NC(=O)c3ccc(NC(=O)[C@H](CC#N)NC(=O)c4ccc(NC(=O)/C(C)=C/c5ccc(O)cc5)cc4)cc3)c(OC)c2O)ccc(C(=O)O)c1O` [albicidin]: the “neutralization of antibacterial activity by AlbAL” value in test [1] (40 µM compound pre-incubated with 40 µM AlbAL) was “albicidin-neutralizing effect”. Moreover, the “neutralization of antibacterial activity by AlbAS” value in [1] (40 µM compound pre-incubated with 40 µM AlbAS) is on record as “albicidin-neutralizing effect”. The “neutralization of antibacterial activity by AlbASCTD” value in test [1] (40 µM compound with 40 µM AlbASCTD) is “failed to suppress the antibacterial effects; also recorded: not able to neutralize albicidin”. In addition, the “neutralization of antibacterial activity by AlbASM (N75A, R181A, Q205A)” value in test [1] (40 µM compound with 40 µM AlbASM) is “not capable of efficiently suppressing the antibacterial activity”. For the same compound, in test [1] (40 µM compound with 40 µM AlbASNTD), the “neutralization of antibacterial activity by AlbASNTD” value is given as “failed to suppress the antibacterial effects; also recorded: not able to neutralize albicidin”. Also, the “binding to AlbAS by HSQC signal pattern (in words)” value in [2] was “strong ligand binding in the nM–pM range”. In addition, the minimum inhibitory concentration (MIC) in test [3], in test [4], in test [5], in test [6], in test [7] and in test [8] was not below 64 µg/mL in each case. In addition, in [10], the MIC was 0.5 µg/mL (≈ 0.593 µM). The “stabilization of DNA cleavage complex (in words)” value in test [9] is listed as “stabilizing the cleavage complex”.
